Experiment: dynamic vapor sorption (DVS) analysis
Assay type: physicochemical
Conditions: relative humidity increased from about 0% to about 90% RH
Text: FIG. 5 provides a DVS isotherm plot of polymorph Form C of 2-(4-chlorophenyl)-N-((2-(2,6-dioxopiperidin-3-yl)-1-oxoisoindolin-5-yl)methyl)-2,2-difluoroacetamide.
In certain embodiments, polymorph Form C is characterized by dynamic vapor sorption analysis. A representative dynamic vapor sorption (DVS) isotherm plot is shown in
FIG. 5. […] In certain embodiments, polymorph Form C comprises less than 0.1% water as determined in a coulometric Karl Fischer (KF) titrator equipped with an oven sample processor set at 225° C.

For `O=C1CCC(N2Cc3cc(CNC(=O)C(F)(F)c4ccc(Cl)cc4)ccc3C2=O)C(=O)N1` (stereo not shown) [polymorph Form C, 2-(4-chlorophenyl)-N-((2-(2,6-dioxopiperidin-3-yl)-1-oxoisoindolin-5-yl)methyl)-2,2-difluoroacetamide], the water uptake was “about 0.6 % w/w”.

Reference: patent US12577223B2, “Processes for preparing 2-(4-chlorophenyl)-n-((2-(2,6-dioxopiperidin-3-yl)-1-oxoisoindolin-5-yl)methyl)-2,2-difluoroacetamide” (Celgene Corporation, priority 2019, dated 2026)
